Measurements as given in PubChem BioAssay (NCI).
“And” between values parts separate entries of the source, which are not always exact repeats. Equal entries are not always repeated.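 Values below derive from 48-hour exposures of cells grown in 96-well plates, with endpoints linearly interpolated between the two concentrations bracketing the appropriate inhibition level. Abbreviation: GI50, concentration required for 50% inhibition of growth. TGI: concentration producing complete growth inhibition.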

How the values were obtained:
Experiment in all cases: DTP human tumour cell line panel, 48 h
UO-31 renal = tested on: UO-31 renal
U251 CNS = tested on: U251 CNS
COLO 205 colon = tested on: COLO 205 colon
NCI-H226 lung = tested on: NCI-H226 lung
SN12C renal = tested on: SN12C renal
RPMI-8226 leukemia = tested on: RPMI-8226 leukemia
SF-539 CNS = tested on: SF-539 CNS
RXF 393 renal = tested on: RXF 393 renal
OVCAR-4 ovarian = tested on: OVCAR-4 ovarian
HS 578T breast = tested on: HS 578T breast

SMILES	TGI (UO-31 renal)	TGI (U251 CNS) [µM]	TGI (COLO 205 colon) [µM]	TGI (NCI-H226 lung) [µM]	TGI (SN12C renal) [µM]	TGI (RPMI-8226 leukemia) [µM]	TGI (SF-539 CNS)	TGI (RXF 393 renal) [µM]	TGI (OVCAR-4 ovarian) [µM]	TGI (HS 578T breast) [µM]	GI50 (UO-31 renal) [µM]	GI50 (U251 CNS) [µM]	GI50 (COLO 205 colon) [µM]	GI50 (NCI-H226 lung) [µM]	GI50 (SN12C renal) [µM]	GI50 (RPMI-8226 leukemia) [µM]	GI50 (SF-539 CNS)	GI50 (RXF 393 renal) [µM]	GI50 (OVCAR-4 ovarian) [µM]	GI50 (HS 578T breast) [µM]
CCCCCCCCCCCCCCCCOCC(Cl)COP(=O)(O)OP(=O)(O)OCC1OC(n2cnc3c(N)ncnc32)C(O)C1O (stereo not drawn)	> 100 µM	> 100	> 100	> 100	> 100	> 100	> 100 µM	> 100	> 100	> 100	–	–	–	–	–	–	–	–	–	–
CC1=C2C(=O)c3ccccc3C(=O)[C@H]2C[C@@H](N2CCCCCC2=O)O1	33.3 µM	50.6	32.2	> 100	34.5	35.4	33.7 µM	55.9	32.1	> 100	–	–	–	–	–	–	–	–	–	–
CC1=C2NCN(C)N=C2C(C#N)(C#N)C1(C#N)C#N	36.7 µM	> 76.9	19.9	> 100	34.9	37.3	64.4 µM	42.7	34.8	> 96.3	–	–	–	–	–	–	–	–	–	–
COC1=CC(=O)C2=C(C1=O)[C@H]1CC[C@]3(C)[C@@H](OC(C)=O)CC[C@H]3[C@@H]1CC2	> 100 µM	> 100	> 100	> 100	> 100	> 100	> 100 µM	> 100	30.6	> 100	–	–	–	–	–	–	–	–	–	–
Cn1c(=O)sc2cc(C(=S)N3CCOCC3)ccc21	> 100 µM	> 100	> 100	> 100	> 100	> 100	> 100 µM	> 100	> 100	> 100	–	–	–	–	–	–	–	–	–	–
NC(=S)N/N=C\CC(O)(C(F)(F)F)C(F)(F)F	> 10 µM	> 10	> 10	> 10	> 10	> 10	> 10 µM	> 10	> 10	> 10	–	–	–	–	–	–	–	–	–	–
CCOC(=O)/C(C#N)=C/N(CC)/N=C/c1ccccc1	> 100 µM	> 100	> 100	> 100	> 100	> 100	> 100 µM	> 100	> 100	> 100	–	–	–	–	–	–	–	–	–	–
CC(C)CCCC(C)[C@H]1CC[C@H]2N=C(Nc3ccccc3)CCC[C@]12C (stereo partly drawn)	3.12 µM	4.33	2.67	3.72	3.48	4.8	3.28 µM	2.98	14.4	5.81	–	–	–	–	–	–	–	–	–	–
CC/C(Cl)=N\OC(=O)Nc1ccc(F)cc1F	29.4 µM	55.6	3.6	34.2	11.5	3.57	23.5 µM	27.7	34.8	> 69.5	–	–	–	–	–	–	–	–	–	–
O=C1OI(C#Cc2ccccc2)c2ccccc21	14.3 µM	6.13	9.11	19	22.6	4.24	5.58 µM	97.5	12.3	26.6	–	–	–	–	–	–	–	–	–	–
COC(=O)/C=C/c1ccc2c(c1)CC1(Cc3ccccc3C1)C2	> 100 µM	> 100	> 100	> 100	> 100	> 100	> 100 µM	> 100	> 100	80.4	–	–	–	–	–	–	–	–	–	–
O=S1(=O)CCN(c2ccccc2CC(c2c[nH]c3ccccc23)c2c[nH]c3ccccc23)CC1	72 µM	24	8.23	42.7	24.1	5.01	32 µM	28.8	> 63.7	42.7	–	–	–	–	–	–	–	–	–	–
CC(C)C1CC(CO)(CNc2cc(Cl)nc(N)n2)C1 (stereo not drawn)	> 100 µM	> 100	> 100	> 100	> 100	> 100	> 100 µM	> 100	> 100	> 100	–	–	–	–	–	–	–	–	–	–
Nc1ncc(/C=N/O)c(NCC2(CO)CC(CCc3ccccc3)C2)n1 (stereo not drawn)	26.9 µM	26.4	27.2	40.1	33	42.9	29.6 µM	29	48.5	> 100	–	–	–	–	–	–	–	–	–	–
O=S(=O)(O)C1CCC(O)C2[N-]CCCC21.O=S(=O)(O)C1CCC(O)C2[N-]CCCC21.[Zn+2] (stereo not drawn)	> 100 µM	> 100	> 100	> 100	> 100	> 100	> 100 µM	> 100	> 100	> 100	–	–	–	–	–	–	–	–	–	–
CC(C)(C)c1c(C(C)(C)C)c(=O)c1=O	> 100 µM	> 100	> 100	> 100	> 100	> 100	> 100 µM	> 100	> 100	> 100	–	–	–	–	–	–	–	–	–	–
CC1(C)[C@@H]2CC[C@@]1(C)[C@H](O)[C@@H]2SCc1ccccc1	35.4 µM	31.7	34.1	39.4	34.5	> 100	34.6 µM	33	26.6	30.7	–	–	–	–	–	–	–	–	–	–

SMILES	TGI (UO-31 renal)	TGI (U251 CNS) [µM]	TGI (COLO 205 colon) [µM]	TGI (NCI-H226 lung) [µM]	TGI (SN12C renal) [µM]	TGI (RPMI-8226 leukemia) [µM]	TGI (SF-539 CNS)	TGI (RXF 393 renal) [µM]	TGI (OVCAR-4 ovarian) [µM]	TGI (HS 578T breast) [µM]	GI50 (UO-31 renal) [µM]	GI50 (U251 CNS) [µM]	GI50 (COLO 205 colon) [µM]	GI50 (NCI-H226 lung) [µM]	GI50 (SN12C renal) [µM]	GI50 (RPMI-8226 leukemia) [µM]	GI50 (SF-539 CNS)	GI50 (RXF 393 renal) [µM]	GI50 (OVCAR-4 ovarian) [µM]	GI50 (HS 578T breast) [µM]
O=C1CSC2(CC(/C=C/c3ccccc3Br)=NN2c2cccc(S(=O)(=O)O)c2)N1c1nc2ccccc2s1 (stereo not drawn)	> 100 µM	> 100	> 100	> 100	> 100	> 100	> 100 µM	> 100	> 100	> 100	–	–	–	–	–	–	–	–	–	–
CCN(CC)CCN(C)CCc1ccc(Br)cc1	> 100 µM	> 100	39.5	> 100	> 100	> 100	> 100 µM	> 100	> 100	> 100	–	–	–	–	–	–	–	–	–	–
CC(=O)c1ccc(NC(=O)CSc2nc(C)nc3c2sc(=S)n3-c2ccccc2)cc1	> 10 µM	> 3.16	> 3.16	> 3.16	> 3.16	> 3.16	> 3.16 µM	> 3.16	> 3.16	> 3.16	–	–	–	–	–	–	–	–	–	–
Oc1[nH]c2ccccc2c1/C=c1/cc2c(c(-c3ccc(C(F)(F)F)cc3)n1)=Nc1ccccc1-2	20.7 µM	18.3	5.13	> 100	> 100	13.7	44.6 µM	15.3	13.6	69.9	2.55	4.46	1.95	36.4	27.9	2.93	16.3 µM	3.08	2.75	10.3
NC(=O)C1=CC2C3C=CC2(O)C(=O)OC3O1 (stereo not drawn)	13.7 µM	40.5	16.1	5.83	20	> 29.5	15.7 µM	8.23	13.2	5.57	–	–	–	–	–	–	–	–	–	–
Cc1ccc(S(=O)(=O)N/N=C2\C3CC4CC(C3)C2C4)cc1 (stereo not drawn)	> 100 µM	> 100	> 100	> 100	> 100	> 100	> 100 µM	> 100	> 100	> 100	–	–	–	–	–	–	–	–	–	–
O=C1C=C(N2CCN(c3ccccn3)CC2)C(=O)c2c(O)ccc(O)c21	> 46.4 µM	23	16	> 56.2	45.2	41.7	22.3 µM	43.4	28.2	> 70.3	–	–	–	–	–	–	–	–	–	–
CC(C)(C)CC(C)(C)c1ccc(OCCOCC[N+](C)(C)Cc2ccccc2)cc1	45.9 µM and 43 µM	4.44	2.91	15.7	12.7	3.83	3.41 µM and 9.48 µM	10.3	9.38	4.81	12.4	–	–	–	–	–	1.69 µM and 2.88 µM	–	–	1.61
O=P(O)(O)CN1CCNCCN(CP(=O)(O)O)CCNCC1	> 100 µM	> 100	> 100	> 94.9	> 100	> 100	> 100 µM	> 100	> 100	> 100	–	–	–	–	–	–	–	–	–	–
Cc1cn([C@H]2[C@@H](CO)C[C@H]2O)c(=O)[nH]c1=O	> 100 µM	> 100	> 100	> 100	> 100	> 100	> 100 µM	> 100	> 100	> 100	–	–	–	–	–	–	–	–	–	–
COc1ccc(C(=O)c2ccc(-n3cc(/C=C/[N+](=O)[O-])c4ccccc43)cc2)cc1	37.1 µM	24.9	> 63.5	> 92.9	42.7	> 100	31.3 µM	10.8	> 100	19.9	–	–	–	–	–	–	–	–	–	–
O=C1CC2(CCNCC2)C(=O)N1N1CCOCC1	> 100 µM	> 100	> 100	> 100	> 100	> 100	> 100 µM	> 100	> 100	> 100	–	–	–	–	–	–	–	–	–	–
O=CNNC(=O)Nc1ccc(Cl)cc1	> 100 µM	> 100	> 100	> 100	> 100	> 100	> 100 µM	> 100	> 100	> 100	–	–	–	–	–	–	–	–	–	–
O=C1/C(=C\c2cccc(Oc3ccccc3)c2)SC(c2ccccc2)N1c1cccc([N+](=O)[O-])c1 (stereo not drawn)	> 100 µM	> 100	> 100	> 100	> 100	> 100	63.3 µM	> 100	> 100	> 100	–	–	–	–	–	–	–	–	–	–
CC(C)=CCC[C@@H](C)c1c2[nH]c3ccccc3sc-2c(C)c(=O)c1=O	14.4 µM	> 75	> 66.7	11.1	67.2	25	16.3 µM	32.7	> 75	> 48.9	–	–	–	–	–	–	–	–	–	–
CC(=O)O[C@H]1C(=O)N(c2cc3c4ccccc4ccc3c3ccccc23)[C@@H]1c1ccccc1	28 µM	> 100	18.1	40.3	26.7	6.77	13.2 µM	8.95	49.5	25.1	–	–	–	–	–	–	–	–	–	–
